Where a name gives a salt, the structure may show the parent alone.
What was measured:
[1] = system: human adult dermal fibroblasts HDFa; assay: HS and Lamp1 immunofluorescence in control fibroblasts HDFa; type: cell-based; settings: 20 μM, 48 hours
Method: (§1) To verify whether the selected iminosugars could exert the same effects also on the fibroblasts of patients affected by Sanfilippo disease, human adult dermal fibroblasts HDFa (purchased from Sigma-Aldrich) were used as control, and fibroblasts of patients affected by Sanfilippo A and B (MPS IIIA and IIIB) were used as disease model.
(§2) Cells were cultured in the presence of the selected L-iminosugars at a dosage of 20 μM and after 48 hours were treated for HS and Lamp1 immunofluorescence. Treatment with L-iminosugars had no effect on control HDFa (Table 3).
(§3) Cells were grown in the presence of the iminosugars D-DNJ, D-NBDNJ, D-AMPDNM and D-MONDNJ at the dosage of 20 μM and after 48 hours were treated for HS and Lamp1 immunofluorescence. Treatment with D-iminosugars had no effect on HDFa and fibroblasts of patients affected by Sanfilippo A and B (MPS IIIA and MPS IIIB) both on HS and lysosome accumulation (Table 4).

[2] = system: control clone (WT) of human neuroblastoma cell line SK-NBE; assay: Lamp1 immunofluorescence in control (WT) SK-NBE clone; type: cell-based; settings: 20 μM, 48 hours
Excerpt: (§4) To study the effects of the compounds on the lysosomal dysfunctions in a neuronal model of Sanfilippo B disease (MPS IIIB), we recently generated stable clones of the human neuroblastoma cell line SK-NBE silenced for the NAGLU gene causative of MPS IIIB [De Pasquale V, et al. (2021). Biochim Biophys Acta Mol Cell Res. 1868, 119113.]. Mimicking the features of Sanfilippo B disease, silencing of NAGLU causes accumulation of heparan sulfate and accumulation of lysosomes in the cytoplasm of stable SK-NBE clones compared to the control (WT) clone.
(§5) Therefore, NAGLU-silenced clone (c15) and control clone (WT) were selected to test the effect of L-deoxyminosugars (L-DNJ, L-NBDNJ, L-NNDNJ, L-HPDNJ, L-NPDNJ, L-AMPDNM and L-MONDNJ) in the hydrochloride form on the lysosomal phenotype of our cell model of Sanfilippo B (MPS IIIB).
(§6) Clone 5 was cultured in the presence of 20 μM of each L-deoxyminosugar under normal growth conditions and after 48 hours the lysosomal accumulation was evaluated with immunofluorescence technique by using a specific antibody against Lamp1 (lysosomal marker). […] Furthermore, upon treatment with the active L-deoxyminosugar the lysosomes are no longer concentrated in the perinuclear region of the cells, as occurs in several lysosomal diseases, but they are physiologically distributed throughout the cytoplasm.

[3] = system: fibroblasts of patients affected by Sanfilippo A (MPS IIIA); assay: HS and Lamp1 immunofluorescence in Sanfilippo A patient fibroblasts; type: cell-based, human; settings: 20 μM, 48 hours; for Effect on HS and lysosome (Lamp1) accumulation, in words: Sanfilippo A (MPS IIIA) patient fibroblasts
Excerpt: as §1
(§7) The human cell lines, fibroblasts, from patients with MPS (Sanfilippo disease) used in the examples were obtained from the G. Gaslini Institute of Genoa, “Cell Line and DNA Biobank from Patients Affected by Genetic Diseases”-Telethon Genetic Biobank Network—Telethon research service. These cells are classified with identification codes and by type of disease without allowing patient identification. Cells were collected from the patients, at the Gaslini Institute, with informed consent to the collection extended to conservation and its possible use, for diagnosis and/or research purposes according to current legislation as required by the guidelines followed by the Telethon biobanks. The Network operates abiding by the Italian Privacy and Data Protection Laws in force, including: Italian Data Protection Authority, Personal Data Protection Code, Legislative Decree no. 196, 30 Jun. 2003, published in Official Gazette No. 174 of the Italian Republic, 29 Jul. 2003; Italian Data Protection Authority, General Authorization for the processing of genetic data, 24 Jun. 2011, published in Official Gazette No. 159 of Italian Republic, 11 Jul. 2011.
as §2, §3

[4] = system: NAGLU-silenced clone (cl5) of human neuroblastoma cell line SK-NBE; assay: Heparan sulfate (HS) immunofluorescence in NAGLU-silenced SK-NBE clone, Sanfilippo B model; type: cell-based; settings: 48 hours; for Cells positive for HS (%) / Relative HS fluorescence intensity: cl5 clone, 20 μM; for Effect on HS staining / HS accumulation, in words: clone 5, 20 μM
Excerpt: as §4
Clone 5 was grown in the presence of 20 μM of each L-iminosugar under normal growth conditions and after 48 hours the accumulation of heparan sulfate (HS) was evaluated by immunofluorescence staining for HS.

[5] = system: NAGLU-silenced clone (cl5) of human neuroblastoma cell line SK-NBE; assay: Lamp1 immunofluorescence (lysosomal accumulation) in NAGLU-silenced SK-NBE clone, Sanfilippo B model; type: cell-based; settings: 48 hours; for Cells positive for Lamp1 (%) / Relative Lamp1 fluorescence intensity: cl5 clone, 20 μM; for Effect on lysosomal enlargement and accumulation (lysosomal phenotype), in words: clone 5, 20 μM
Excerpt: as §4, §5, §6

[6] = system: NAGLU-silenced clone (cl5) of human neuroblastoma cell line SK-NBE; assay: Immunofluorescence against beta-amyloid peptide 1-42 in NAGLU-silenced SK-NBE clone; type: cell-based; settings: 20 μM, 48 hours
Method: The clone (c15) stably silenced for NAGLU, the causative gene of MPS IIIB, is able to mimic the features of neurodegenerative diseases as it accumulates beta-amyloid fibers in the cytoplasm. In fact, Sanfilippo Syndrome is also defined as “childhood Alzheimer”.
The diseased clone (c15) was grown in the presence of L-DNJ, L-NBDNJ, L-AMPDNM and L-MONDNJ and the corresponding enantiomers D-DNJ, D-NBDNJ, D-AMPDNM and D-MONDNJ at a dosage of 20 μM and after 48 hours were processed by immunofluorescence against the beta-amyloid peptide 1-42. […] On contrary, treatment with the corresponding D-enantiomers has no effect on the reduction of the accumulation of amyloid fibers compared to the untreated clone (mock) (Table 7).

[7] = system: control clone (WT) of human neuroblastoma cell line SK-NBE; assay: Heparan sulfate (HS) immunofluorescence in control (WT) SK-NBE clone; type: cell-based; settings: 20 μM, 48 hours
[8] = system: HeLa tumor epithelial cells; assay: HS immunostaining in HeLa cells; type: cell-based; settings: 48 hours
Method: To test whether treatment with the selected L-deoxyminosugars (L-DNJ, L-NBDNJ, L-AMPDNM and L-MONDNJ) could interfere with HS synthesis we selected a cell line not mutated for NAGLU and highly decorated by heparan sulfate on the cell membrane. For this purpose, HeLa tumor epithelial cells (purchased from ATCC) were cultured for 48 hours in the presence of the selected L-iminosugars and the amount of HS was evaluated by immunostaining.

[9] = system: fibroblasts of patients affected by Sanfilippo B (MPS IIIB); assay: HS and Lamp1 immunofluorescence in Sanfilippo B patient fibroblasts; type: cell-based, human; settings: 20 μM, 48 hours; for Effect on HS and lysosome (Lamp1) accumulation, in words: Sanfilippo B (MPS IIIB) patient fibroblasts
Excerpt: as §1, §7, §2, §3

[10] = system: HeLa tumor epithelial cells; assay: HeLa cell proliferation assay; type: cell-based; settings: after 48 hours
Method: Furthermore, treatment with the L-deoxyminosugars L-DNJ, L-NBDNJ, L-AMPDNM and L-MONDNJ caused a decrease of the number of HeLa cells after 48 hours as shown by the cell proliferation assay reported in Table 6.

patients with MPS III = settings: cited from earlier work

| SMILES | Relative fluorescence intensity compared to HDFa, HS [1] | Relative fluorescence intensity compared to HDFa, Lamp1 [1] | Cells positive for Lamp1 (%) [2] | Relative Lamp1 fluorescence intensity [2] | Relative fluorescence intensity compared to HDFa, HS ([3]; MPS-IIIA fibroblasts) | Relative fluorescence intensity compared to HDFa, Lamp1 ([3]; MPS-IIIA fibroblasts) | Effect on HS and lysosome (Lamp1) accumulation, in words [3] | Cells positive for HS (%) [4] | Relative HS fluorescence intensity [4] | Effect on HS staining / HS accumulation, in words [4] | Cells positive for Lamp1 (%) [5] | Relative Lamp1 fluorescence intensity [5] | Effect on lysosomal enlargement and accumulation (lysosomal phenotype), in words [5] | Relative amyloid fluorescence intensity [6] | Cells positive for HS (%) [7] | Relative HS fluorescence intensity [7] | Effect on HS accumulation on the HeLa cell membrane, in words [8] | Relative HS fluorescence intensity [8] | Relative fluorescence intensity compared to HDFa, HS ([9]; MPS-IIIB fibroblasts) | Cell number [10] | also measured |
| --- | --- | --- | --- | --- | --- | --- | --- | --- | --- | --- | --- | --- | --- | --- | --- | --- | --- | --- | --- | --- | --- |
| CCCCN1C[C@@H](O)[C@H](O)[C@@H](O)[C@@H]1CO [L-NBDNJ•HCl, N-butyl-L-deoxynojirimycin] | 1.0 | 1.0 | 2.6% | 1.07 | 1.7 | 1.9 | strong reduction | 7.4% | 1.13 | dramatic reduction | 20% | 0.97 | dramatic reduction | 0.01 | 2.5% | 0.96 | strong reduction | 0.26 | 1.5 | 3.6 · 10^5 | Relative fluorescence intensity compared to HDFa, Lamp1 ([9]; MPS-IIIB fibroblasts): 1.0; Effect on HS and lysosome (Lamp1) accumulation, in words [9]: strong reduction; Effect on the number of HeLa cells, in words [10]: decrease |
| OC[C@@H]1NC[C@@H](O)[C@H](O)[C@H]1O [L-DNJ•HCl] | 1.0 | 1.0 | 2.8% | 1.00 | 1.0 | 1.8 | strong reduction | 5.1% | 1.20 | dramatic reduction | 25% | 0.95 | dramatic reduction | 0.01 | 2.6% | 0.94 | strong reduction | 0.24 | 1.0 | 2.9 · 10^5 | Relative fluorescence intensity compared to HDFa, Lamp1 ([9]; MPS-IIIB fibroblasts): 1.0; Effect on HS and lysosome (Lamp1) accumulation, in words [9]: strong reduction; Effect on the number of HeLa cells, in words [10]: decrease |
| CCCCN1C[C@H](O)[C@@H](O)[C@H](O)[C@H]1CO [D-NBDNJ•HCl] | – | – | – | – | – | – | – | – | – | – | – | – | – | 0.98 | – | – | – | – | – | 4.2 · 10^5 | Cells positive for HS (%) [1]: 4.8%; Cells positive for Lamp1 (%) [1]: 5.0%; Cells positive for HS (%) ([3]; MPS-IIIA fibroblasts): 99.7%; Cells positive for Lamp1 (%) ([3]; MPS-IIIA fibroblasts): 94.7%; Clinical efficacy in MPS III patients, in words (patients with MPS III): no beneficial effects; Cells positive for HS (%) ([9]; MPS-IIIB fibroblasts): 95.2%; Cells positive for Lamp1 (%) ([9]; MPS-IIIB fibroblasts): 93.8% |
| OC[C@H]1[C@H](O)[C@@H](O)[C@H](O)CN1CCCCCOCC12CC3C[C@H](C1)C[C@H](C3)C2 [L-AMPDNM•HCl, N-adamantanomethoxypentyl L-DNJ] | 1.0 | 1.0 | 2.5% | 1.08 | 1.5 | 2.2 | strong reduction | 5.1% | 1.19 | dramatic reduction | 18% | 0.99 | dramatic reduction | 0.02 | 2.3% | 0.94 | strong reduction | 0.12 | 1.0 | 3.7 · 10^5 | Relative fluorescence intensity compared to HDFa, Lamp1 ([9]; MPS-IIIB fibroblasts): 1.0; Effect on HS and lysosome (Lamp1) accumulation, in words [9]: strong reduction; Effect on the number of HeLa cells, in words [10]: decrease |
| O=c1c(-c2ccc(O)cc2)coc2cc(O)cc(O)c12 [genistein] | – | – | – | – | – | – | – | – | – | – | – | – | – | – | – | – | – | – | – | – | Clinical efficacy in MPS III patients, in words (patients with MPS III): ineffective |

Reference: patent US20250255856A1, “THERAPEUTIC COMPOSITIONS WITH IMINO SUGARS FOR THE TREATMENT OF DISEASES WITH ACCUMULATION OF HEPARAN SULFATE” (priority 2022, published 2025)
